Laboratory results taken from patent US20070004636A1, “Method of degrading transcriptional factors of saccharometabolism-associated gene, method for inhibiting the degradation, and agent for inhibiting degradation and degradation inhibitor” (priority 2002, published 2007).

Tests used:
Type in all cases: cell-based
human HNF-4α = assay: intracellular HNF-4α degradation test by adding calcium ionophore, HEK293T cells; details: 10 μg/mL, 3 hours, nuclear and cytoplasmic fraction
Description: After culturing a total number of 0.7×10^6 HEK293T cells for 22 hours at 37° C. under the presence of 5% CO2 (Petri dish with 60 mm diameter), 2 μg of HNF-4α expression plasmid (see Example 2) was transfected thereto using the FuGENE 6 Transfection Reagent. After two days of culturing, the culture medium was replaced with a medium that contained 10 μg/mL of ionophore A23187 (4-bromo-calcium ionophore A23187, Sigma Chemical Co.), and the culturing was continued for 3 hours. For a negative control group, the culture medium was replaced with a medium to which dimethylsulfoxide (DMSO) was added instead of the ionophore. After culturing for the pre-determined time, the cells were washed with cold PBS (−), suspended in 300 μl of hypotonic cell lysis buffer (10 mM HEPES, pH 7.5/10 mM MgCl2/42 mM KCl/1 mM PMSF), and left to stand on ice for 20 mins. The cells were disrupted with a homogenizer, and then centrifuged at 4° C. for 10 minutes at 600 g, to collect the resulting supernatant as a cytoplasmic fraction and the precipitation as a nuclear fraction. The nuclear fraction was further suspended in solution comprising 2×PBS/1% Nonidet P-40/0.1% SDS, and disrupted by ultrasonication. An equal volume of 2×SDS sample buffer was added thereto, heated for 5 minutes, and then subjected to 5-20% SDS-PAGE for separation. Detection of HNF-4α was conducted by the same method as in Example 4.

human HNF-1α = assay: intracellular HNF-1α degradation test by adding calcium ionophore, HEK293T cells; details: 10 μg/mL, 4 hours
Description: After culturing a total number of 0.8×10^6 HEK293T cells for 5 hours at 37° C. under the presence of 5% CO2 (Petri dish with 60 mm diameter), 2 μg of an HNF-1α expression plasmid (see Example 7) was transfected thereto using the FuGENE 6 Transfection Reagent. After two days of culturing, the culture medium was replaced with a medium containing 10 μg/mL of ionophore A23187 (Sigma Chemical Co.) and 0.2% DMSO, and then the culturing was continued for 4 hours. For a negative control group, the culture medium was replaced with a medium containing 0.2% DMSO. After culturing for the pre-determined time, the cells were washed with cold PBS (−), suspended in 350 μl of hypotonic cell lysis buffer, and then left to stand on ice for 20 mins. The cells were disrupted with a homogenizer, and then centrifuged at 4° C. for 10 minutes at 600 g to collect the resulting supernatant as a cytoplasmic fraction and the precipitation as a nuclear fraction. The nuclear fraction was further suspended in solution comprising 2×PBS/1% Nonidet P-40/0.1% SDS, and disrupted by ultrasonication. The protein concentration of cell fractions was determined with Coomassie Plus Protein Assay Reagent Kit (Pierce Chemical Corp.). Each of the prepared samples was added to an equal volume of 2×SDS sample buffer, heated for 5 minutes, and then subjected to 5-20% SDS-PAGE for separation. […]

human IPF-1 = assay: intracellular IPF-1 degradation test by adding calcium ionophore, HEK293T cells; details: 10 μg/mL, 4 hours
Description: After culturing a total number of 0.5×10^6 HEK293T cells for 24 hours at 37° C. under the presence of 5% CO2 (Petri dish with 60 mm diameter), 2 μg of IPF-1 expression plasmid (see Example 10) was transfected thereto using the FuGENE 6 Transfection Reagent. After two days of culturing, the culture medium was replaced with a medium containing 10 μg/mL of ionophore A23187 (Sigma Chemical Co.), and the culturing was continued for further 4 hours. For a negative control group, the culture medium was replaced with a medium containing 0.2% DMSO. After culturing for the pre-determined time, the cells were washed with cold PBS (−), suspended in 350 μl of hypotonic cell lysis buffer, and then left to stand on ice for 20 mins. The cells were disrupted with a homogenizer, and then centrifuged at 4° C. for 10 minutes at 600 g to collect the supernatant as a cytoplasmic fraction and the precipitation as a nuclear fraction. The nuclear fraction was further suspended in solution comprising 2×PBS/1% Nonidet P40/0.1% SDS, and disrupted by ultrasonication. The nuclear fraction and cell fraction were added to an equal volume of 2×SDS sample buffer, heated for 5 minutes, and then subjected to 5-20% SDS-PAGE for separation. Detection of IPF-1 was conducted by the same method as in Example 10.

4-bromo-calcium ionophore A23187
observed: degradation of HNF-4α by adding ionophore (human HNF-4α) | degradation of HNF-1α by addition of ionophore (human HNF-1α) | degradation of IPF-1 by addition of ionophore (human IPF-1)
